Each structure is given as a SMILES string.

In patent US20070026478A1, “Hemiasterlin affinity probes and their uses” (WYETH, priority 2002, published 2007) one finds Kd data, which are given here for one molecule.

Assay [1] has as its target T1, bovine brain tubulin (Bos taurus, UniProt P81947+Q6B856).
T1 construct: MAP-rich bovine brain tubulin (99% purity), Hela cell tubulin (90% purity); purchased Cytoskeleton (Denver, Colo.); host or cells: bovine brain
Kind of assay: Reversible binding affinity assay (tubulin fluorescence). The procedure:
The affinity of both HTI-286 and of non-radiolabled Probe 1 and Probe 2, to bovine brain tubulin was determined by previously published methods (Krishnamurthy et al., Biochem., submitted). Briefly, 5 mg/mL […] tubulin prepared in PEM buffer was pre-incubated with buffer or varying concentrations of test agents in individual quartz cuvettes. The intrinsic tryptophan fluorescence of tubulin (excitation at 560 nm and maximal emission at 580 nm) was measured after pre-incubation for 90 minutes. The change in fluorescence intensity at 580 nm in the presence of compound was fitted to a quadratic equation to obtain apparent dissociation constants (KD) of the test agents.

Assay [2] deals with T1, bovine brain tubulin. Nature of the assay: Radiolabeled Probe 1 binding by centrifugal gel filtration. The note with it: 0.5 μM tubulin, 0.005-5 μM radiolabeled Probe 1, room temperature; read-out: apparent KD, radiolabeled probe technique. The procedure: Binding of Probe 1 to bovine brain tubulin was also assessed by incubating 0.5 μM tubulin with 0.005-5 μM radiolabeled Probe 1 both in the presence and in the absence of 5 μM non-radiolabeled probe 1 as a competitor. Incubations were performed for 30 minutes at room temperature in PEM buffer. Binding was measured using centrifugal gel filtration on Sephadex G-50 (Microspin G-50) as described (Bai et al., Cancer Res. 1996, 56:4398-4406). Spin columns (Amersham Biosciences, Piscataway, N.J.) were centrifugated for 1 minute at 2000 rpm in a microcentrifuge immediately prior to use, and samples applied in 50 μL total volume, followed by a 2 minute centrifugation at the same speed. The amount of probe 1 bound to tubulin was quantitated by measuring the radioactivity within aliquots collected after centrifugation. The KD value, representing 50% of specific binding, was calculated from the curve generated by subtracting the amount of […].
On the technique in general: In gel filtration, larger molecules generally elute earlier.

T1 sequence (P81947 whole entry): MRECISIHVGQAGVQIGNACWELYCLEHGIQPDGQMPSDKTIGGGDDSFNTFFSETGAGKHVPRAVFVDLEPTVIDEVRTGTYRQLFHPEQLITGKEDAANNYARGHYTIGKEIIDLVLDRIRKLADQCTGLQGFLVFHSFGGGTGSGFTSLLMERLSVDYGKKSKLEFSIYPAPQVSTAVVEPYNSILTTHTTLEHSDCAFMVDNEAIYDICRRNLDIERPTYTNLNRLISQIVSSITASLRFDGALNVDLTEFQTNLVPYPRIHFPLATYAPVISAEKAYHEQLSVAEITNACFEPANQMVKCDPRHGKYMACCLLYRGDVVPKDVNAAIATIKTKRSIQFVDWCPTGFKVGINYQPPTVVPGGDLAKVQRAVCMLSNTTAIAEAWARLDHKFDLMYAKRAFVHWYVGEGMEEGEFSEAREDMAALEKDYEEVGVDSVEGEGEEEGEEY
T1 sequence (Q6B856 whole entry): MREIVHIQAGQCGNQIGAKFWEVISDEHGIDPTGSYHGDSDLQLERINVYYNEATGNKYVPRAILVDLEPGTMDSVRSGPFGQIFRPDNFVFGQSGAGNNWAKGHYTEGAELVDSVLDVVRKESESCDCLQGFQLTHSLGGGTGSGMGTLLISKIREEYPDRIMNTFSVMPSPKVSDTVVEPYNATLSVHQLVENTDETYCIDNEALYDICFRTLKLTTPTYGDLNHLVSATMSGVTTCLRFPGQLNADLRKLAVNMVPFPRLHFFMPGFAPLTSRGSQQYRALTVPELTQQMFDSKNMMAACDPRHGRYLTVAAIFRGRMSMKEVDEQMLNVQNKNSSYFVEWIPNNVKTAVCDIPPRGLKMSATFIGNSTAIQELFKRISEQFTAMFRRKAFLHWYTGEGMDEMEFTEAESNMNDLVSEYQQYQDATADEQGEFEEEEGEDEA

In the case of `CN[C@H](C(=O)N[C@H](C(=O)N(C)[C@H](/C=C(\C)C(=O)O)C(C)C)C(C)(C)C)C(C)(C)c1ccc(C(=O)c2ccccc2)cc1` [Probe 1, 4-benzoyl-N,β,β-trimethyl-L-phenylalanyl-N^1-[(1S,2E)-3-carboxy-1-isopropylbut-2-enyl]-N^1,3-dimethyl-L-valinamide], the Kd was 200 to 800 nM at bovine brain tubulin [1] (Table 1, binding to bovine brain tubulin, read-out: KD); 500 nM at bovine brain tubulin [1] (rhodamine-labeled tubulin, 90 minutes pre-incubation, read-out: apparent binding constant (KD), fluorescence method); 350 nM on bovine brain tubulin [2].
